Where two headings read alike, the source gives them in different places.
Experiments:
Type in all cases: cell-based
[1] = tested on: tumor cells; assay: Mitochondrial membrane potential, JC-1 (read-out 48 h); settings: JC-1, 48 h
Method: D) Mitochondrial Membrane Potential
This assay is performed in 96 well tissue culture plates. Appropriate number of cells (adherent cells: 3-5*10^3, suspension cells: 8-10*10^3) are being seeded out in 80 μl complete medium. Adherent cells are incubated for 24 h for proper spreading out before addition of test compounds while suspension cells are immediately treated with test compounds after seeding out. The test compounds are added in 20 μl complete medium containing max 5% DMSO. […] After 24 h or 48 h incubation at culture conditions, 10 μl medium containing JC-1 (Molecular Probes, T-3168) at 2-5 μg/ml are added to each well. The assay plates are then further incubated for 30 minutes and subsequently analyzed with a standard inverted fluorescence microscope by using the FITC and TRITC filters.
The readout allows the determination of the fraction of cells which show a dissipation of the mitochondrial membrane potential strongly indicating an apoptotic cell death as a function of the treatment. The scores A, B, C and D are explained at the end of the Table.

[2] = tested on: tumor cells; assay: MTS proliferation assay (72 h read-out)
Method: B) MTS Proliferation Assay
The assay is performed in 96 well tissue culture plates. The cells (range: 1.5*10^3-10^4) are seeded out in 80 μl complete medium 24 h prior to compound treatment. The test compounds are added in 20 μl complete medium containing max 5% DMSO. The final compound concentrations in the assays are in the range of 0.001 μM-10 μM. The assay plates are incubated for 72 h at culture conditions. The MTS reagent is prepared according to the manufacturer's protocol (Promega G1111). 20 μl MTS reagent are added to each well; the assay plates are quickly spun and incubated for another 3 h at culture conditions. Subsequently, the plates are shortly shaked and absorption measured with a microplate-reader at 492 nm. The scores A, B, C and D are explained at the end of the Table.

[3] = tested on: tumor cells; assay: Hoechst 33342 nuclear staining (48 h read-out)
Method: (§1) A) Hoechst 33342 Nuclear Staining
(§2) This assay is performed in 96 well tissue culture plates. Appropriate number of cells (adherent cells: 3-5*10^3, suspension cells: 8-10*10^3) are being seeded out in 80 μl complete medium. Adherent cells are incubated for 24 h for proper spreading out before addition of test compounds while suspension cells are immediately treated with test compounds after seeding out. The test compounds are added in 20 μl complete medium containing max 5% DMSO. The final compound concentrations in the assays are in the range of 0.001 μM-10 μM. After 24 h or 48 h incubation at culture conditions, 10 μl medium containing Hoechst 33342 dye (Sigma B-2261) at 2-5 μg/ml are added to each well. The assay plates are then further incubated for 30 minutes and subsequently analyzed with a standard inverted fluorescence microscope.
(§3) The readout allows the determination of the fraction of apoptotic nuclei as well as other morphological criteria specific for apoptosis as a function of the treatment. The scores A, B, C and D are explained at the end of the Table.

[4] = Hoechst 33342 nuclear staining (48 h read-out); settings: MRC5 cells, read-out: Hoechst 33342 nuclear staining EC50, MRC5
Method: as §1, §2, §3

[5] = Homo sapiens, HeLa cells, read-out: Mitochondrial membrane potential (read-out 48 h) HeLa
[6] = Homo sapiens, Jurkat cells, read-out: Mitochondrial membrane potential (read-out 48 h) Jurkat
[7] = Homo sapiens, MCF7 cells, read-out: Mitochondrial membrane potential (read-out 48 h) MCF7
[8] = Jily cells, read-out: Mitochondrial membrane potential (read-out 48 h) Jily
[9] = Homo sapiens, HT-1080, HT1080 cells, read-out: MTS proliferation assay IC50, HT1080
[10] = Homo sapiens, HeLa cells, read-out: MTS proliferation assay IC50, HeLa
[11] = Homo sapiens, Jurkat cells, read-out: MTS proliferation assay IC50, Jurkat
[12] = Jily cells, read-out: MTS proliferation assay IC50, Jily
[13] = Homo sapiens, HeLa cells, read-out: Hoechst 33342 nuclear staining EC50, HeLa
[14] = Homo sapiens, Jurkat cells, read-out: Hoechst 33342 nuclear staining EC50, Jurkat
[15] = HeLa cells, read-out: Mitochondrial membrane potential (read-out 48 h) HeLa
[16] = Jurkat cells, read-out: Mitochondrial membrane potential (read-out 48 h) Jurkat
[17] = MCF7 cells, read-out: Mitochondrial membrane potential (read-out 48 h) MCF7
[18] = HT1080 cells, read-out: MTS proliferation assay IC50, HT1080
[19] = HeLa cells, read-out: MTS proliferation assay IC50, HeLa
[20] = Jurkat cells, read-out: MTS proliferation assay IC50, Jurkat
[21] = HeLa cells, read-out: Hoechst 33342 nuclear staining EC50, HeLa
[22] = Jurkat cells, read-out: Hoechst 33342 nuclear staining EC50, Jurkat

| Structure (SMILES) | EC50 [1, 5] | EC50 [1, 6] | EC50 [1, 7] | EC50 [1, 8] | IC50 [2, 9] | IC50 [2, 10] | IC50 [2, 11] | IC50 [2, 12] | EC50 [3, 13] | EC50 [3, 14] | EC50 ([4]; Homo sapiens) | EC50 [1, 15] | EC50 [1, 16] | EC50 [1, 17] | IC50 [2, 18] | IC50 [2, 19] | IC50 [2, 20] | EC50 [3, 21] | EC50 [3, 22] | EC50 [4] |
| --- | --- | --- | --- | --- | --- | --- | --- | --- | --- | --- | --- | --- | --- | --- | --- | --- | --- | --- | --- | --- |
| CCOc1ccc(F)cc1C(=O)c1sc2ncc(C#N)cc2c1N [Example 120, 5-Cyano-3-amino-2-(2′-ethoxy-5′-fluorobenzoyl)-thieno[2,3-b]pyridine] | > 1000 nM | 100 to 1000 nM | > 1000 nM | 100 to 1000 nM | 100 to 1000 nM | 100 to 1000 nM | 100 to 1000 nM | 100 to 1000 nM | > 1000 nM | 100 to 1000 nM | 100 to 1000 nM | – | – | – | – | – | – | – | – | – |
| Nc1c(C(=O)c2ccccc2N2CCOCC2)sc2ncccc12 [Example 122] | – | – | – | > 1000 nM | – | – | – | > 1000 nM | – | – | – | > 1000 nM | > 1000 nM | > 1000 nM | > 1000 nM | > 1000 nM | > 1000 nM | > 1000 nM | > 1000 nM | > 1000 nM |
| Cc1cc2c(N)c(C(=O)c3cc(F)ccc3N3CCOCC3)sc2nc1C [Example 119, 5,6-Dimethyl-3-amino-2-(2′-N-morpholino-5′-fluorobenzoyl)-thieno[2,3-b]pyridin] | > 1000 nM | 100 to 1000 nM | > 1000 nM | 100 to 1000 nM | 10 to 100 nM | 100 to 1000 nM | 10 to 100 nM | 10 to 100 nM | 100 to 1000 nM | 10 to 100 nM | 10 to 100 nM | – | – | – | – | – | – | – | – | – |
| Nc1cnc2sc(C(=O)c3ccccc3N3CCOCC3)c(N)c2c1 [Example 132] | – | – | – | > 1000 nM | – | – | – | 100 to 1000 nM | – | – | – | > 1000 nM | > 1000 nM | > 1000 nM | > 1000 nM | > 1000 nM | 100 to 1000 nM | > 1000 nM | 100 to 1000 nM | > 1000 nM |
| Nc1c(C(=O)c2cc(F)ccc2N2CCOCC2)sc2ncc([N+](=O)[O-])cc12 [Example 129] | – | – | – | > 1000 nM | – | – | – | > 1000 nM | – | – | – | > 1000 nM | > 1000 nM | > 1000 nM | > 1000 nM | > 1000 nM | > 1000 nM | > 1000 nM | > 1000 nM | > 1000 nM |
| CCCOc1ccc(F)cc1C(=O)c1sc2ncc([N+](=O)[O-])cc2c1N [Example 127] | – | – | – | > 1000 nM | – | – | – | > 1000 nM | – | – | – | > 1000 nM | > 1000 nM | > 1000 nM | > 1000 nM | > 1000 nM | > 1000 nM | > 1000 nM | > 1000 nM | > 1000 nM |
| Nc1c(C(=O)c2cc(F)ccc2N2CCOCC2)sc2ncccc12 [Example 125] | – | – | – | 100 to 1000 nM | – | – | – | 100 to 1000 nM | – | – | – | > 1000 nM | 100 to 1000 nM | > 1000 nM | > 1000 nM | > 1000 nM | 100 to 1000 nM | > 1000 nM | > 1000 nM | > 1000 nM |
| Nc1c(C(=O)c2cc(F)ccc2N2CCCCC2)sc2ncccc12 [Example 124] | – | – | – | > 1000 nM | – | – | – | > 1000 nM | – | – | – | > 1000 nM | > 1000 nM | > 1000 nM | > 1000 nM | > 1000 nM | > 1000 nM | > 1000 nM | > 1000 nM | > 1000 nM |
| Nc1c(C(=O)c2cc(F)ccc2N2CC=CCC2)sc2ncccc12 [Example 126] | – | – | – | 100 to 1000 nM | – | – | – | 100 to 1000 nM | – | – | – | > 1000 nM | 100 to 1000 nM | > 1000 nM | 100 to 1000 nM | > 1000 nM | 100 to 1000 nM | > 1000 nM | > 1000 nM | > 1000 nM |
| Cc1cc2c(N)c(C(=O)c3ccccc3N3CC=CCC3)sc2nc1C [Example 135] | – | – | – | 10 to 100 nM | – | – | – | 10 to 100 nM | – | – | – | > 1000 nM | 10 to 100 nM | > 1000 nM | 10 to 100 nM | 100 to 1000 nM | 10 to 100 nM | 100 to 1000 nM | 10 to 100 nM | 100 to 1000 nM |
| Nc1c(C(=O)c2ccccc2N2CC=CCC2)sc2ncccc12 [Example 123] | – | – | – | > 1000 nM | – | – | – | > 1000 nM | – | – | – | > 1000 nM | > 1000 nM | > 1000 nM | > 1000 nM | > 1000 nM | > 1000 nM | > 1000 nM | > 1000 nM | > 1000 nM |
| CCCOc1ccccc1C(=O)c1sc2nc(C)c(C)cc2c1N [Example 133] | – | – | – | 10 to 100 nM | – | – | – | 10 to 100 nM | – | – | – | 10 to 100 nM | 10 to 100 nM | > 1000 nM | 10 to 100 nM | 10 to 100 nM | 10 to 100 nM | 10 to 100 nM | 10 to 100 nM | 10 to 100 nM |
| N#Cc1cnc2sc(C(=O)c3cc(F)ccc3N3CCOCC3)c(N)c2c1 [Example 136] | – | – | – | 100 to 1000 nM | – | – | – | 100 to 1000 nM | – | – | – | > 1000 nM | 100 to 1000 nM | > 1000 nM | 100 to 1000 nM | 100 to 1000 nM | 100 to 1000 nM | > 1000 nM | 100 to 1000 nM | > 1000 nM |
